Results on nine compounds are retold here after ChEMBL document CHEMBL1671837, “[I]-Celecoxib Analogues as SPECT Tracers of Cyclooxygenase-2 in Inflammation” (ACS Med Chem Lett, 2011).

The target of assay [1] is T1, Prostaglandin G/H synthase 2 (Mus musculus, UniProt Q05769).
T1 sequence (Q05769 whole entry): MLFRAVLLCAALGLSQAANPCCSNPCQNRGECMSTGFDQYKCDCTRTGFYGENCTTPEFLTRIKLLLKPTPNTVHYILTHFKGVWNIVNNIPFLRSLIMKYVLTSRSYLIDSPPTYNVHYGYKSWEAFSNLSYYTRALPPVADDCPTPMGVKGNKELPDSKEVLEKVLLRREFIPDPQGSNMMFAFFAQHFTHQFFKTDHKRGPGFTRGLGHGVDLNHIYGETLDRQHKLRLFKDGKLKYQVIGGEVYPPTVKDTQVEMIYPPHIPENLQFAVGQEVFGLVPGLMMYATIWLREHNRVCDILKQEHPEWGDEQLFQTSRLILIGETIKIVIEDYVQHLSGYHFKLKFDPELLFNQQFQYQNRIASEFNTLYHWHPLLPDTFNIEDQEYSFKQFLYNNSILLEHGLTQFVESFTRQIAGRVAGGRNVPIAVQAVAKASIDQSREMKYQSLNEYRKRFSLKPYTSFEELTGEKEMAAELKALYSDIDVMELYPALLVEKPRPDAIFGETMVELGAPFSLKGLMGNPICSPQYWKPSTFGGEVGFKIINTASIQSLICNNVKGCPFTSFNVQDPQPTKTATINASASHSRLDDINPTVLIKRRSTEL
Description: Inhibition of COX2 in mouse LPS-stimulated RAW264.7 cells after 30 mins. It counts as cell-based.

The target of assay [2] is T2, Prostaglandin G/H synthase 1 (Mus musculus) (UniProt P22437).
T2 sequence (whole entry): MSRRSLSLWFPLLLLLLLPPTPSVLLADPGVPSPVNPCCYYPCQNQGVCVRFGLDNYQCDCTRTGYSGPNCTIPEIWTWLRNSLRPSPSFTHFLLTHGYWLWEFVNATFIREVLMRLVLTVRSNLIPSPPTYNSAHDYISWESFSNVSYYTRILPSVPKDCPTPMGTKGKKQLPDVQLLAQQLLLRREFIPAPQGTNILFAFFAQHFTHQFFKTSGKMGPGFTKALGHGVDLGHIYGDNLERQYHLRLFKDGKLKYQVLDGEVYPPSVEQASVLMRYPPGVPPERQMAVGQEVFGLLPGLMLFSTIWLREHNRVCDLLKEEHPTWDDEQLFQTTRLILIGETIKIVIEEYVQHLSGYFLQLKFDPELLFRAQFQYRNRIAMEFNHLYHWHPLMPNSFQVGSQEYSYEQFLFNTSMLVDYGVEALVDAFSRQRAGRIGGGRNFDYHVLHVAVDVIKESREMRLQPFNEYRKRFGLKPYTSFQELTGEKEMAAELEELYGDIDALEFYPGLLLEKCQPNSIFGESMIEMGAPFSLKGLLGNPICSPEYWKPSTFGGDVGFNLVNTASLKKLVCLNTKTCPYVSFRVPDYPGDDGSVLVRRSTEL
Description: Inhibition of COX1 in mouse LPS-stimulated RAW264.7 cells at up to 5 uM after 30 mins. The assay is classed as cell-based.

The target in assay [3] is T3, Prostaglandin G/H synthase 1 (Ovis aries, UniProt P05979).
T3 sequence (P05979 whole entry): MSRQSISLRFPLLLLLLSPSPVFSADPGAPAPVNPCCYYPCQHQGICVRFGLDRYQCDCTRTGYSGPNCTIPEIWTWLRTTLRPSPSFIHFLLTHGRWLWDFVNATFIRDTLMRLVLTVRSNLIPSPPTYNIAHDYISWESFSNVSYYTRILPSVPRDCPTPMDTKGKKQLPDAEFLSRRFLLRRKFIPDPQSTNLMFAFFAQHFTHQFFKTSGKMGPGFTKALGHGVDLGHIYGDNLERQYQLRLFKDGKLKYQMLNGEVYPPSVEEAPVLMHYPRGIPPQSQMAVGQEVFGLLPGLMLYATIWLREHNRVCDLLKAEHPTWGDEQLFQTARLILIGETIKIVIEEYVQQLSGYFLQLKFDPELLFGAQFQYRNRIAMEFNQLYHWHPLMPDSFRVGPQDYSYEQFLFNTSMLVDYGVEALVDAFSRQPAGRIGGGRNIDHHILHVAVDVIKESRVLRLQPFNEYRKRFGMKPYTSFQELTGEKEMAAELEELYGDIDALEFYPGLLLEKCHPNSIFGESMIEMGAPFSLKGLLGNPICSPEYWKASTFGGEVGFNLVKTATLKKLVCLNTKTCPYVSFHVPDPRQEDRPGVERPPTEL
Description: Inhibition of ovine purified COX1 after 20 mins.

The source made the active and inactive calls. The calls are words filed in the database; no cut-off is given here. Bounds are passed on as bounds.

One may read the IC50 as the point on the concentration scale where inhibition reaches its midpoint. Lower therefore signals greater potency in that assay. On to `CS(=O)(=O)c1ccc(-n2nc(C(F)(F)F)cc2-c2ccc(I)cc2)cc1`, for which the values for the half-maximal inhibitory concentration (IC50) in assay [1] and in assay [3] were 0.03 µM and greater than 4 µM, respectively. Moreover, the inhibition entry in assay [2] was “inactive”.
Take `CCOC(=O)c1cc(-c2ccc(I)cc2)n(-c2ccc(S(N)(=O)=O)cc2)n1`: the values for the IC50 in assay [1] and in assay [3] were 2.7 µM and greater than 4 µM, respectively.
`COC(=O)c1cc(-c2cccc(I)c2)n(-c2ccc(S(N)(=O)=O)cc2)n1` gave an IC50 in assay [3] greater than 4 µM.
The compound `CS(=O)(=O)c1ccc(-n2nc(C(F)(F)F)cc2-c2cccc(I)c2)cc1` registered an IC50 in assay [3] greater than 4 µM.
The compound `COC(=O)c1cc(-c2cccc(I)c2)n(-c2ccc(S(C)(=O)=O)cc2)n1` showed an IC50 in assay [3] greater than 4 µM.
In assay [3], `COC(=O)c1cc(-c2ccc(I)cc2)n(-c2ccc(S(C)(=O)=O)cc2)n1` returned an IC50 greater than 4 µM.
In the case of `NS(=O)(=O)c1ccc(-n2nc(CCC(=O)O)cc2-c2cccc(I)c2)cc1`, the IC50 in assay [3] is greater than 4 µM.
As for `NS(=O)(=O)c1ccc(-n2nc(CCC(=O)O)cc2-c2ccc(I)cc2)cc1`, in assay [3], the IC50 is greater than 4 µM.
`COC(=O)c1cc(-c2ccc(I)cc2)n(-c2ccc(S(N)(=O)=O)cc2)n1`: the IC50 in assay [3] is greater than 4 µM.
